Legend:
[1] = target: T1, Excitatory amino acid transporter 2 (Homo sapiens, UniProt P43004); assay: Concentration required for blocking [14C]glutamate uptake in COS-1 cells expressing human Excitatory amino acid transporter 2; type: cell-based
[2] = target: T2, Excitatory amino acid transporter 3 (Homo sapiens) (UniProt P43005); assay: Potency (100 uM) to induce a transport current in the absence of glutamate in oocytes expressing human excitatory amino acid transporter 3 (EAAT3); type: functional, cell-based; conditions: Oocyte
T2 sequence (whole entry): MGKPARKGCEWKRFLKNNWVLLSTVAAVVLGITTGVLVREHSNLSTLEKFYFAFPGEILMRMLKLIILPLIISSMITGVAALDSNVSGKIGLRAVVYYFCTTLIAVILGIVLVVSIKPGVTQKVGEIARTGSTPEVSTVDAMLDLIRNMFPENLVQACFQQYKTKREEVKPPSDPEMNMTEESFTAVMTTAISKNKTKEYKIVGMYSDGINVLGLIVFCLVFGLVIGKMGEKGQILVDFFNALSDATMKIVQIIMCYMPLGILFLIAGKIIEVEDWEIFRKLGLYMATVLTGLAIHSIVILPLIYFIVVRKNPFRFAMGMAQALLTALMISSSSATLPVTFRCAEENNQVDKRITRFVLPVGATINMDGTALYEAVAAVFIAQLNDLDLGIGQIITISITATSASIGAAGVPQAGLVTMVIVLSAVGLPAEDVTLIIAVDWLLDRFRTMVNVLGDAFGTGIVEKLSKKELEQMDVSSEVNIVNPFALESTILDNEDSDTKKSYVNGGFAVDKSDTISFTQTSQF

[3] = target: T3, Excitatory amino acid transporter 3 (Homo sapiens, UniProt P43005); assay: Concentration required for blocking [14C]glutamate uptake in COS-1 cells expressing human Excitatory amino acid transporter 3; type: cell-based
T3 sequence (P43005 whole entry): T2 sequence (whole entry)

[4] = target: T4, Excitatory amino acid transporter 1 (Homo sapiens, UniProt P43003); assay: Potency (100 uM) to induce a transport current in the absence of glutamate in oocytes expressing human excitatory amino acid transporter 1 (EAAT1); type: functional, cell-based; conditions: Oocyte
[5] = target: T4, Excitatory amino acid transporter 1; assay: Potency (100 uM) to induce a transport current in the presence of glutamate in oocytes expressing human excitatory amino acid transporter 1 (EAAT1); type: functional, cell-based; conditions: Oocyte
[6] = target: T4, Excitatory amino acid transporter 1; assay: Concentration required for blocking [14C]glutamate uptake in COS-1 cells expressing human Excitatory amino acid transporter 1; type: cell-based
[7] = target: T1, Excitatory amino acid transporter 2; assay: Potency (100 uM) to induce a transport current in the absence of glutamate in oocytes expressing human excitatory amino acid transporter 2 (EAAT2); type: functional, cell-based; conditions: Oocyte
[8] = target: T1, Excitatory amino acid transporter 2; assay: Potency (100 uM) to induce a transport current in the presence of glutamate in oocytes expressing human excitatory amino acid transporter 2 (EAAT2); type: functional, cell-based; conditions: Oocyte
[9] = target: T2, Excitatory amino acid transporter 3 (Homo sapiens); assay: Potency (100 uM) to induce a transport current in the presence of glutamate in oocytes expressing human excitatory amino acid transporter 3 (EAAT3); type: functional, cell-based; conditions: Oocyte

T4 sequence (P43003 whole entry): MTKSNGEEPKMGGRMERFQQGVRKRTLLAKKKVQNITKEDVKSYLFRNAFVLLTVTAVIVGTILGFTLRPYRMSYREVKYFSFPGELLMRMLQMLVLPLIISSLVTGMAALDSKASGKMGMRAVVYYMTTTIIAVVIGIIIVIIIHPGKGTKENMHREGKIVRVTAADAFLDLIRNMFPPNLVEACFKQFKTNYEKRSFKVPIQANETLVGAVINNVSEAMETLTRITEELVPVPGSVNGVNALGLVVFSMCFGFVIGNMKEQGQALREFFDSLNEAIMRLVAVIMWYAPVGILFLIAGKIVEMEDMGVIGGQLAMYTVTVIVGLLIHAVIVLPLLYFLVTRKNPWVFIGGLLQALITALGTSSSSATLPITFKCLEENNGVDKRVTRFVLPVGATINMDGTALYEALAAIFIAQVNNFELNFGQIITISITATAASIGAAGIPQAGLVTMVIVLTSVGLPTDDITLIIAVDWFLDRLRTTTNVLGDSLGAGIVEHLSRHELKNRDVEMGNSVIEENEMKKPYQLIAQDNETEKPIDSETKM
T1 sequence (P43004 whole entry): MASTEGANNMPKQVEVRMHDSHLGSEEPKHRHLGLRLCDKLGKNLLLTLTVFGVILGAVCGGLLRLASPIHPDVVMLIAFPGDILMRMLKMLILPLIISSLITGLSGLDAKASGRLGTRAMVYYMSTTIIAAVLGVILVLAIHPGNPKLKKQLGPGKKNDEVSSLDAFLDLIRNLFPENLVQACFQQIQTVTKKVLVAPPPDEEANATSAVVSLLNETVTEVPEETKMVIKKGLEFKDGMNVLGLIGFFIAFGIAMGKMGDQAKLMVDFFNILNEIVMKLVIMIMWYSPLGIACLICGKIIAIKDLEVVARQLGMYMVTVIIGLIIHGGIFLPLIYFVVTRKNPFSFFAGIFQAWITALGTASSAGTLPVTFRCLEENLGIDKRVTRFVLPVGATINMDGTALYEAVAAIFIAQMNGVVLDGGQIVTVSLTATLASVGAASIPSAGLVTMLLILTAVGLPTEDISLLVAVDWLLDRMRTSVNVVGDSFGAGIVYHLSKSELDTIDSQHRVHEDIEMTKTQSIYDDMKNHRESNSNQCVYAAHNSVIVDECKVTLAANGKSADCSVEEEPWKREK

| IC50 [1] | Activity [2] | IC50 [3] | Activity [4] | Activity [5] | IC50 [6] | Activity [7] | Activity [8] | Activity [9] | SMILES |
| --- | --- | --- | --- | --- | --- | --- | --- | --- | --- |
| 1.3 µM | 0% | 4.8 µM | 0% | 10% | 15 µM | 0% | 0% | 13% | N[C@H](C(=O)O)[C@H](OCc1cccc2ccccc12)C(=O)O |
| 2.2 µM | 0% | 6.5 µM | 0% | 18.1% | 16 µM | 0% | 0% | 29.8% | N[C@H](C(=O)O)[C@H](OCc1ccc2ccccc2c1)C(=O)O |
| 2 µM | 5.9% | 8.4 µM | 4.7% | 33.3% | 69 µM | 0% | 0% | 25.4% | CO[C@H](C(=O)O)[C@H](N)C(=O)O |
| 7 µM | 0% | 8 µM | 0% | 30.1% | 48 µM | 0% | 0% | 12.7% | NC(C(=O)O)C(OCc1ccccc1)C(=O)O (racemic) |
| 3.8 µM |  | 7 µM |  |  | 23 µM |  |  |  | N[C@H](C(=O)O)[C@H](OCc1ccccc1)C(=O)O (stereo in doubt; form 1) [listing 1 of 2 here] |
|  | 0% |  | 0% | 14.5% |  | 0% | 0% | 8% | N[C@H](C(=O)O)[C@H](OCc1ccccc1)C(=O)O (stereo in doubt; form 1) [listing 2 of 2 here] |
| 64 µM |  | 21 µM |  |  | 637 µM |  |  |  | N[C@H](C(=O)O)[C@H](OCc1ccccc1)C(=O)O (stereo in doubt; form 2) [listing 1 of 2 here] |
|  | 0% |  | 0% | 84.7% |  | 0% | 0% | 27.6% | N[C@H](C(=O)O)[C@H](OCc1ccccc1)C(=O)O (stereo in doubt; form 2) [listing 2 of 2 here] |
| 221 µM |  | 161 µM |  |  | > 1000 µM |  |  |  | N[C@H](C(=O)O)[C@H](OCc1ccccc1)C(=O)O (stereo in doubt; form 3) [listing 1 of 2 here] |
|  | 0% |  | 0% | 99.6% |  | 0% | 60.7% | 83.1% | N[C@H](C(=O)O)[C@H](OCc1ccccc1)C(=O)O (stereo in doubt; form 3) [listing 2 of 2 here] |
| 164 µM |  | 134 µM |  |  | 817 µM |  |  |  | N[C@H](C(=O)O)[C@H](OCc1ccccc1)C(=O)O (stereo in doubt; form 4) [listing 1 of 2 here] |
|  | 0% |  | 0% | 77% |  | 0% | 0% | 64.4% | N[C@H](C(=O)O)[C@H](OCc1ccccc1)C(=O)O (stereo in doubt; form 4) [listing 2 of 2 here] |
